Measurements as given in PMC7552967, “Anti-Melanoma Activities of Artemisone and Prenylated Amino-Artemisinins in Combination With Known Anticancer Drugs” (Frontiers in Pharmacology, 2020).

Legend:
[1] = tested on: MCF-7 breast cancer cells; assay: Sulforhodamine B (SRB) growth inhibition assay, MCF7; assay type: cell-based; conditions: Homo sapiens, mean ± SD
Description: (§1) The human cell lines TK10 (human kidney adenocarcinoma), UACC62 (human melanoma) and MCF7 (human breast adenocarcinoma) were obtained from the National Cancer Institute (NCI) as part of a panel widely studied for drug screening and molecular target identification. Melanoma (A375) and human embryonic kidney (HEK293) were acquired from the American Type Culture Collection; ATCC® CRL-1619™ and ATCC® CRL-1573™ respectively. The nontumorigenic human immortalized keratinocyte (HaCaT) cells were a kind donation by the School of Anatomical Sciences, Faculty of Health Sciences, University of the Witwatersrand, South Africa. […]
(§2) The growth inhibitory effects of the compounds were tested in the 3-cell line panel consisting of TK10 (renal), UACC62 (melanoma) and MCF7 (breast) cancer cells by Sulforhodamine B (SRB) assay. In addition, activity was also evaluated against HEK293 cells with the 3-(4,5-dimethylthiazol-2-yl)-2,5-diphenyl tetrazolium bromide (MTT) assay ([Mosmann, 1983]). […] The results were expressed as half maximal inhibitory concentrations (IC50) as described before ([Lewies et al., 2018]). […] After incubation, cell viability was determined using a microplate reader (BioTek®, Vermont, USA) at an excitation wavelength of 560 nm and emission wavelength of 630 nm with DMSO measured as a blank. […] Using the MTT assay data, IC50 values were calculated using GraphPad Prism 8. […]

[2] = tested on: UACC62 melanoma cells; assay: Sulforhodamine B (SRB) growth inhibition assay, UACC62; assay type: cell-based; conditions: Homo sapiens, UACC-62, mean ± SD
Description: as §1, §2

[3] = tested on: TK10 renal cancer cells; assay: Sulforhodamine B (SRB) growth inhibition assay, TK10; assay type: cell-based; conditions: Homo sapiens, TK-10, mean ± SD
Description: as §1, §2

[4] = tested on: A375 melanoma cells; assay: Intracellular ROS, DCFH-DA assay, A375; assay type: cell-based, human; conditions: A375, 12 h treatment; result in words
Protocol: HaCat and A375 cells were seeded at 25,000 cells/well in 96-well plates (Black plate, Clear bottom, Corning, Costar®, NY, USA) and incubated until cells were ~90% confluent. Serum-free DMEM without phenol red (Thermo Fisher Scientific, Gibco, Carlsbad, CA, USA) was used for all experiments. Cells were exposed to compounds or H2O2 (500 µM) for 12 h. Cell staining with ROS fluorescent indicator 2’,7’-dichlorodihydrofluorescein diacetate (DCFH-DA) was performed 1.5 h before the end of the 12-h exposure time. A kinetic analysis was then performed at 37°C using a microplate reader (SpectraMax® ParadigmTM Molecular Devices, Sunnyvale, CA, USA) by measuring the DCF fluorescence (excitation 485 nm and emission 535 nm) every 10 min for 1 h. […] The Bradford assay (Coomassie blue colorimetric method) was then performed in order to determine the relative amount of protein per well, as an indication of cell number per well, and all fluorescence measurements were normalized relative to the cell number. The background fluorescence produced by blank medium controls and unstained but treated cell controls were subtracted from DCFH-DA stained cells. The DCF fluorescence measured at the beginning of the analysis (time 0) was subtracted from the DCF fluorescence at the indicated times for the kinetic analysis (results not shown). […]
The levels of intracellular ROS were determined using the DCFH-DA assay. […]

Work on `C[C@H]1[C@H](N2CCS(=O)(=O)CC2)O[C@@H]2O[C@@]3(C)CC[C@H]4[C@H](C)CC[C@@H]1[C@@]24OO3` [Artemisone 4, artemisone] yielded an IC50 [1] of 2750 ± 790 nM, an IC50 [2] of 32700 ± 3470 nM and an IC50 [3] of over 100000 nM.
`CC(C)=CCC/C(C)=C/CC/C(C)=C/CN1CCN([C@@H]2O[C@@H]3O[C@@]4(C)CC[C@H]5[C@H](C)CC[C@@H]([C@H]2C)[C@@]35OO4)CC1` [Farnesylpiperazine-DHA 7, farnesylpiperazine-DHA] gave an IC50 [1] of 1560 ± 510 nM, an IC50 [2] of 2150 ± 790 nM and an IC50 [3] of 3000 ± 670 nM. For the same molecule, the “Intracellular ROS (DCF fluorescence fold change vs untreated control)” value [4] was “not significantly higher than the untreated control”.
For `CC(C)=CCC/C(C)=C/CN1CCN([C@@H]2O[C@@H]3O[C@@]4(C)CC[C@H]5[C@H](C)CC[C@@H]([C@H]2C)[C@@]35OO4)CC1` [Geranylpiperazine-DHA 6, geranylpiperazine-DHA], the “Intracellular ROS (DCF fluorescence fold change vs untreated control)” value [4] was “not significantly higher when compared to the untreated control”.
